Results: patent US20060194782A1, “Pharmacologically active imidazo[4,5-c] pyridines” (Altana Pharma AG, priority 2003, published 2006)

Legend:
[1] = system: pentagastrin-stimulated acid secretion of the perfused rat stomach; assay: Pentagastrin-stimulated acid secretion of the perfused rat stomach after intraduodenal administration; type: in vivo; conditions: anesthetized CD rat, dose 1.0 μmol/kg i.d.
Text: Testing of the Secretion on the Perfused Rat Stomach
In Table A which follows, the influence of the compounds of the formula 1 according to aspect 3 of the invention on the pentagastrin-stimulated acid secretion of the perfused rat stomach after intraduodenal
The abdomen of anesthetized rats(CD rat, female, 200-250 g; 1.5 g/kg i.m. urethane) was opened after tracheotomy by a median upper abdominal incision and a PVC catheter was fixed transorally in the esophagus and another via the pylorus such that the ends of the tubes just projected into the gastric lumen. The catheter leading from the pylorus led outward into the right abdominal wall through a side opening.
After thorough rinsing (about 50-100 ml), warm (37° C.) physiological NaCl solution was continuously passed through the stomach (0.5 ml/min, pH 6.8-6.9; Braun-Unita I). The pH (pH meter 632, glass electrode EA 147; φ=5 mm, Metrohm) and, by titration with a freshly prepared 0.01 N NaOH solution to pH 7 (Dosimat 665 Metrohm), the secreted HCl were determined in the effluent in each case collected at an interval of 15 minutes.
The gastric secretion was stimulated by continuous infusion of 1 μg/kg (=1.65 ml/h) of i.v. pentagastrin (left femoral vein) about 30 min after the end of the operation (i.e. after determination of 2 preliminary fractions). The substances to be tested were administered intraduodenally in a 2.5 ml/kg liquid volume 60 min after the start of the continuous pentagastrin infusion.
The body temperature of the animals was kept at a constant 37.8-38° C. by infrared irradiation and heat pads (automatic, stepless control by means of a rectal temperature sensor).

Row | melting point | SMILES | Inhibition of acid secretion [1]
1 | 141 to 142 °C | CCc1cccc(C)c1NCc1nccc2c1nc(C)n2C [Example 1, (1,2-Dimethyl-1H-imidazo[4,5-c]pyridin-4-ylmethyl)-(2-ethyl-6-methyl-phenyl)-amine] | –
2 | 204 to 206 °C | CCc1cccc(C)c1CNc1nc(C(=O)N(C)C)cc2c1nc(C)n2C [Example 2, 4-(2-Ethyl-6-methyl-benzylamino)-1,2-dimethyl-1H-imidazo[4,5-c]pyridine-6-carboxylic Acid Dimethylamide] | >30%
3 | 264 to 266 °C | CCc1cccc(C)c1CNc1nc(C(N)=O)cc2c1nc(C)n2C [Example 3, 4-(2-Ethyl-6-methyl-benzylamino)-1,2-dimethyl-1H-imidazo[4,5-c]pyridine-6-carboxylic Acid Amide] | >30%
4 | 157 to 160 °C | CCc1cccc(C)c1CNc1nc(C(=O)NC)cc2c1nc(C)n2C [Example 4, 4-(2-Ethyl-6-methyl-benzylamino)-1,2-dimethyl-1H-imidazo[4,5-c]pyridine-6-carboxylic Acid Methylamide] | >30%
5 | 208 to 209 °C | CCc1cccc(C)c1CNc1nc(C(=O)NCCO)cc2c1nc(C)n2C [Example 5, 4-(2-Ethyl-6-methyl-benzylamino)-1,2-dimethyl-1H-imidazo[4,5-c]pyridine-6-carboxylic Acid (2-Hydroxy-ethyl)-amide] | –
6 | 115 to 116 °C | Cc1nc2c(OCc3ccccc3)nccc2n1C [Example 7, 4-Benzyloxy-1,2-dimethyl-1H-imidazo[4,5-c]pyridine] | –
7 | 180 to 181 °C | Cc1nc2c(OCc3ccccc3Cl)nccc2n1C [Example 8, 4-(2-Chloro-benzyloxy)-1,2-dimethyl-1H-imidazo[4,5-c]pyridine] | –
8 | 164 to 165 °C | Cc1nc2c(OC3CCc4ccccc43)nccc2n1C (centres unmarked) [Example 10, 4-(Indan-1-yloxy)-1,2-dimethyl-1H-imidazo[4,5-c]pyridine] | –
9 | > 111 °C (dec.) | CCOC(=O)c1cc2c(nc(C)n2C)c(NCc2c(C)cccc2CC)n1 [Example 12, 4-(2-Ethyl-6-methyl-benzylamino)-1,2-dimethyl-1H-imidazo[4,5-c]pyridine-6-carboxylic Acid Ethyl Ester] | –
10 | 233 to 236 °C | CCc1cccc(C)c1CNc1nc(C(=O)O)cc2c1nc(C)n2C [Example 13, 4-(2-Ethyl-6-methyl-benzylamino)-1,2-dimethyl-1H-imidazo[4,5-c]pyridine-6-carboxylic Acid] | –
11 | 105 °C | CCc1cccc(C)c1CNc1nc(OCCOC)cc2c1nc(C)n2C [Example 14, (2-Ethyl-6-methyl-benzyl)-[6-(2-methoxy-ethoxy)-1,2-dimethyl-1H-imidazo[4,5-c]pyridin-4-yl]-amine] | –
12 | 106 to 107 °C | CCc1cccc(C)c1CNc1nc(OC)cc2c1nc(C)n2C [Example 15, (2-Ethyl-6-methyl-benzyl)-(6-methoxy-1,2-dimethyl-1H-imidazo[4,5-c]pyridin-4-yl)-amine] | –
13 | 207 to 208 °C | CCc1cccc(C)c1CNc1nc(C(=O)N(C)C)cc2[nH]c(C)nc12 [Example 16, 4-(2-Ethyl-6-methyl-benzylamino)-2-methyl-1H-imidazo[4,5-c]pyridine-6-carboxylic Acid Dimethyl-amide] | >30%
